Data: BindingDB's records for PubMed 11454905 (Eli Lilly, 2001)
Residues, ends and D or L forms follow the SMILES beside them.

Target: Metabotropic glutamate receptor 3 (Rattus norvegicus, UniProt P31422)
Sequence (P31422 whole entry): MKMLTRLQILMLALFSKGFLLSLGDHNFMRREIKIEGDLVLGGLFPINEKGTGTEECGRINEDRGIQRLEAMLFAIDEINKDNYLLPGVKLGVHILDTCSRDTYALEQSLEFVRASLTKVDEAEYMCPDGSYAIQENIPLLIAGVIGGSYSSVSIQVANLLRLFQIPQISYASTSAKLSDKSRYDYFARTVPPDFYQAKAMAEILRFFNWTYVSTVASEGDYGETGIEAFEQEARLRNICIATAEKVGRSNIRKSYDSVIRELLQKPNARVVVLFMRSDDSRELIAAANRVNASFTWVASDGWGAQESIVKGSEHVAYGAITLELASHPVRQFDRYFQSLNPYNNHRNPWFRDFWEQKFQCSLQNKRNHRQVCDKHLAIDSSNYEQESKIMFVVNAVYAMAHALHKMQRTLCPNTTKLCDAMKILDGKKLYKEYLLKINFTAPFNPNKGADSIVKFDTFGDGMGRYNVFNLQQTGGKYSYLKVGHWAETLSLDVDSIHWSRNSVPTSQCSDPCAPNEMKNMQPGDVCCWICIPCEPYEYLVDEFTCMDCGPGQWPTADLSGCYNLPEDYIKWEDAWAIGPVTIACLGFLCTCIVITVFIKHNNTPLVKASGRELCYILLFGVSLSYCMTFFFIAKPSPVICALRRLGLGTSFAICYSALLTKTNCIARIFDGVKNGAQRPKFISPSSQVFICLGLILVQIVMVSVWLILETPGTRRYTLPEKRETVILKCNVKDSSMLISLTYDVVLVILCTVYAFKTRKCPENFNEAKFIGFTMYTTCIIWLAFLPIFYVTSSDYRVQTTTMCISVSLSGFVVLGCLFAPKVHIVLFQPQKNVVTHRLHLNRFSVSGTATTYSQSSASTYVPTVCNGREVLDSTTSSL

| Compound | Ki [µM] |
| --- | --- |
| N[C@@H](CCP(=O)(O)O)C(=O)O | > 10 |
| CC(N)(C(=O)O)c1ccc(P(=O)(O)O)cc1 (configuration not stated) | > 10 |
| O=C(O)[C@H]1[C@H]2CN[C@H](C(=O)O)[C@H]21 | > 10 |
| C[C@@](N)(C(=O)O)c1ccc(C(=O)O)cc1 (racemic) | > 10 |
| N[C@@]1(C(=O)O)CC[C@H](C(=O)O)C1 [1S, 3R-ACPD] | > 10 |
| N[C@@H](Cn1oc(=O)[nH]c1=O)C(=O)O [2-amino-3-(3,5-dioxo[1,2,4]oxadiazolidin-2-yl)propionic acid] | > 10 |
| NC(C(=O)O)c1ccc(P(=O)(O)O)cc1 (configuration not stated) [Amino-(4-phosphono-phenyl)-acetic acid(RS-PPG)] | > 10 |
| N[C@H](CP(=O)(O)O)C(=O)O [CAS_23052-80-4] | > 10 |
| Nc1nc(O)c2ncn(COC(CO)CO)c2n1 [CAS_82410-32-0] | > 10 |
| NC(Cn1cnc2c(=O)[nH]c(=O)[nH]c21)(C(=O)O)C1CC1C(=O)O (configuration not stated) [CAS_5311260] | 0.0008 |
| N[C@@H](CC(=O)O)C(=O)O [L-Aspartic acid, 2] | > 10 |
| N[C@@H](CCC(=O)O)C(=O)O [L-Glutamic acid] | > 10 |
| N[C@@H](C[C@@H](CCCC(c1ccccc1)c1ccccc1)C(=O)O)C(=O)O [LY307452] | 2.01 |
| CC(=O)N[C@@H](CC(=O)O)C(=O)N[C@@H](CCC(=O)O)C(=O)O [[3H]NAAG] (Ac-Asp-Glu-OH) | > 10 |
| NC(CCC(=O)O)C(=O)O (configuration not stated) [glutamic acid dianion] | 0.09 |

The remaining lines, values ahead:

| Ki [µM] | Compound |
| --- | --- |
| 2.73 | N[C@@]1(C(=O)O)CN[C@@H](C(=O)O)C1 [2R, 4R-APDC] |
| 8.69 | N[C@@]1(C(=O)O)CC[C@H](CC(=O)O)C1 [(1S,3S)-HOMO-ACPD] |
| > 10 | N[C@@]1(C(=O)O)CC[C@H]2[C@H](C(=O)O)[C@H]21 [(2S,6S)-2-Amino-bicyclo[3.1.0]hexane-2,6-dicarboxylic acid] |
| 0.061 | N[C@H](C(=O)O)C1[C@@H](C(=O)O)[C@@H]1C(=O)O (some centres not stated) [DCG-IV] |
| 0.334 | N[C@H](C(=O)O)[C@H]1C[C@H]1C(=O)O [L-CCG-IV] |
| 0.0065 | N[C@@]1(C(=O)O)CO[C@H]2[C@H](C(=O)O)[C@H]21 [LY379268] |
| > 10 | O=C(O)[C@H]1CN[C@H](C(=O)O)C1 [t-PDC] |
